Measured values published in patent US6365634B1, “Naturally occurring compounds and their derivatives as cyclooxygenase 2 and/or 5-lipoxygenase inhibitors” (C-P Technology Limited Partnership, priority 1997, dated 2002).

Legend:
[1] = biological target: T1, human recombinant COX II (Homo sapiens, UniProt P35354); assay: COX II biochemical assay (3H-arachidonic acid conversion, TLC quantitation)
T1 construct: purchased Oxford Chemical
T1 sequence (P35354 18-604): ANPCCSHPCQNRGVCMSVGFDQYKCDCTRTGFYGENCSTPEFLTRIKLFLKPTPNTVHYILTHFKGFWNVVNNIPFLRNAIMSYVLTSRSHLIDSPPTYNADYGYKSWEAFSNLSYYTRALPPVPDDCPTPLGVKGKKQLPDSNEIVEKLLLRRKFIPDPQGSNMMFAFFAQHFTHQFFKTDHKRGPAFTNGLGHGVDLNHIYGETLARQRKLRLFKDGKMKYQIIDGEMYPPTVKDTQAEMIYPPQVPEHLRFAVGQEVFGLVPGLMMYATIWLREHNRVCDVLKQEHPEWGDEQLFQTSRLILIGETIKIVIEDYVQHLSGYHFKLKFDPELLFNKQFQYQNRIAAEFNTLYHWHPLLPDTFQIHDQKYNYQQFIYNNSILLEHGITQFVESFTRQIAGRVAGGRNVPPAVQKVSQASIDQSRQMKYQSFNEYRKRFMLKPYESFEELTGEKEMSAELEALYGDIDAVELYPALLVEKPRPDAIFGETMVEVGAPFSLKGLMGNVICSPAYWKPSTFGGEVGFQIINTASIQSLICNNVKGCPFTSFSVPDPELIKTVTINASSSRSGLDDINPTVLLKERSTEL
Procedure: Two units of recombinant COX II enzyme (corresponding to 0.8 ug total protein) was added followed by 5 uL aliquots of the peat bog extracts yielding a final concentration of the peat extracts of 25 ug/ml. All samples were run in duplicate. […] Reactions were initiated by the addition of ^3H-arachidonic acid (DuPont-NEN) at a final concentration of 50 uM. The reactions were maintained for 5 minutes at 37° C. and stopped by the addition of ice-cold methanol/acetic acid (10:1 v/v).
The assessment of cyclooxygenase activity (both COX I and II) in the presence and absence of the peat bog extracts was based on the quantitation of tlhe radiolabeled arachidonic acid metabolites prostaglandin A2 (PGA2), PGE2, and PGF2-alpha. To do this, a 50 uL sample of each reaction solution was separated via TLC on LK6DF silica plates co-spotted with arachidonic acid, PGA2, and PGF2-alpha and developed in hexane/isopropyl alcohol/ acetic acid (85:15:1 v/v). The bands were visualized by UV-vis or I2 staining and scraped into scintillation vials for quantitation. […] The total enzyme activity (At), the corrected enzyme activity in the presence of an inhibitor (Ai), and % inhibition were calculated by the following equations:
3) Percent Inhibition=100 (1−Ai/ At)

[2] = system: human keratinocyte PGE2 production; assay: Cell-based COX II assay: PGE2 production by cultured human foreskin keratinocytes (enzyme immunoassay); settings: 5, 1.0, 0.2 and 0.04 uM, 24 hours, high calcium medium
Procedure: The ability of dehydroabietic acid methyl ester to inhibit the enzymatic activities of COX II and 5-LO was tested using primary cultures of human foreskin keratinocytes. Briefly, human keratinocytes were plated in 48-well plates (Nunc) at an initial density of 2.5×10^4 cells per well. The cultures were maintained in medium 154XP (Cascade Biologics) to which human keratinocyte growth supplement (Cascade Biologics) was added. Cultures were plated initially in medium 154XP containing 0.07 mM CaCl2. Upon reaching […] confluency, the media was exchanged with high calcium medium 154XP containing 1.2 mM CaCl2. Previous studies have shown that an increase in extracellular Ca^2+concentration induces the differentiation of cultured keratinocytes with a concomitant increase in the expression of COX II protein and COX II mRNA with no apparent effect on COX I expression (Leong, J., Hughes-Fulford, M., Rakhlin, A., Maclouf, J., and Goldyne, M., (1996), Exp. Cell Res., V224, p79). Twenty-four hours after switching to the high calcium media, duplicate wells were treated with dehydroabietic acid methyl ester serially diluted in ethanol to produce final concentrations of 5, 1.0, 0.2, and 0.04 uM. Companion cultures were treated with an identical dilution series of the Merck COX II-specific inhibitor DFU. Twenty-four hours later, samples were removed from each treated well (as well as vehicle-treated control wells) and the amount of PGE2 (a product of the COX II pathway) was quantified using a PGE2-specific enzyme immunoassay (Cayman Chemical). ), As was done with the previously described biochemical assays (COX I, COX II, 5-LO, and 15-LO), the percent inhibition was calculated based on a comparison between vehicle treated control cultures and cultures treated with dehydroabietic acid methyl ester or DFU (see Fractionation and Bioassay Analysis of Fractions Derived from Extract-8 above).
The ability of 4-cumylphenol to inhibit the enzymatic activity of COX II was tested using primary cultures of human foreskin keratinocytes. These cell studies were performed in an identical manner to the studies described in Example 6. […] Twenty-four hours later, samples were removed from each treated well (as well as vehicle-treated control wells) and the amount of PGE2 (a product of the COX II pathway) was quantified using a PGE2-specific enzyme immunoassay (Cayman Chemical). ), as was done with the previously described COX I, COX II, and 15-LO biochemical assays (see Example 2B). The percent inhibition was calculated based on a comparison between vehicle treated control cultures and cultures treated with 4-cumylphenol or DFU. […]
To evaluate the biological activities of 3-methoxy aniline, sufficient quantities of the compound were synthesized as detailed in Example 1C (above). […]

SMILES | inhibited COX II preferentially over COX I by ([1]; 250 uM, difference of percent inhibition COX II versus COX I) | Percent Inhibition of COX II ([1]; final concentration of 250 uM) | inhibition of PGE2 production by cultured human keratinocytes [2] | Percent Inhibition of COX II ([1]; pure 4-cumylphenol, assay as Example 2B, concentration not given)
COC(=O)[C@]1(C)CCC[C@]2(C)c3ccc(C(C)C)cc3CC[C@@H]12 [Dehydroabietic acid methyl ester, dehydroabietic acid methyl ester] | over 30% | 31.5% | inhibited the production of PGE2 | 
CC(C)(c1ccccc1)c1ccc(O)cc1 [4-Cumylphenol, 4-cumylphenol] |  |  | inhibited the production of PGE2 | 22.4%
